The values below come from patent publication US20230149364A1, “METHODS OF TREATING VIRAL INFECTIONS” (EAGLE PHARMACEUTICALS, INC., priority 2020, published 2023).

Values after ≈ are worked out from the molar mass of the structure shown. Values joined by “and” are separate entries in the source; they are usually repeats but may differ in a detail not shown here. Identical values can stand only once. Like-named read-outs stand apart in the source and are kept apart here.

Series [1] has as its system SARS-CoV-2. As to the kind of experiment: Virus neutralization (VN) assay, scoring of SARS-CoV-2 cytopathic effects (CPE) in Vero E6 cells. Format: cell-based. Background: Damage to the host cells serves as the signal in cytopathic effect assays.
For series [2], the system named is Vero E6 cells.

`O=C1CN(/N=C/c2ccc(-c3ccc([N+](=O)[O-])cc3)o2)C(O)=N1` [dantrolene]: the CPE result in series [1] is given as “no CPE was observed”. For the same compound, the “Day 2 Read (CPE)” value in series [1] was 3/3 wells had No CPE and 3/3 walls n34 > 90% CPE; in series [1] (50 μM dantrolene, Day 2), 3/3 wells had sparse. The “Day 4 Read (CPE)” value in series [1] was 3/3 wells had No CPE and 2/3 wells had > J0% CPE and 1/3 wells had > 90% CPE and 3/3 wells had > 90% CPE; in series [1] (50 μM dantrolene, Day 4), 3/3 wells had sparse. In addition, the “Day 6 Read (CPE)” value in series [1] was 3/3 wells had No CPE and 2/3 wells had > 90% CPE and 1/3 wells had > 90% CPE and 3/3 wells had > 90% CPE; in series [1] (50 μM dantrolene, Day 6, cell wraps on: 'confluency but greater than Day 4'), 3/3 wells had sparse. Moreover, the “cytopathic effects (virus growth)” value in series [1] (20 and 40 μM dantrolene, all timepoints) is on record as “No cytopathic effects”. In addition, the MIC in series [1] (Severe acute respiratory syndrome coronavirus 2, 144 h, SARS-CoV-2 in Vero E6 cells, no CPE across all time points (6 days), read-out: minimum inhibitory concentration) was determined as 20 µM (≈ 6.29 µg/mL). In addition, in series [1] (lower concentrations of 10 and 5 μM), the anti-viral activity result was “also showed anti-viral activity”. In addition, in series [2] (50 μM dilution, Day 6 post-infection, decreased compared to lower dilutions), the “cell growth at Day 6” value is given as “rebound cell growth”. Besides, in series [2] (50 and 100 μM, Days 2 and 4, both infected cells and uninfected controls), the “cytopathic effects at highest concentrations” value is “showed cytopathic effects”. For the same compound, the Cytotoxic effects entry in series [2] (African green monkey) was “Cytotoxic effects were only observed at the 2 highest dantrolene concentrations”. For the same compound, the “cell viability of uninfected Vero E6 cells” value in series [2] (lower dilutions (<50 μM dantrolene), uninfected) is reported as “good cell viability”.
